Measurements reported in ChEMBL document CHEMBL2150973, “Dual inhibitors for aspartic proteases HIV-1 PR and renin: advancements in AIDS-hypertension-diabetes linkage via molecular dynamics, inhibition assays, and binding free energy calculations” (J Med Chem, 2012).

Test system: Human immunodeficiency virus 1
Test: microbe, parasite or virus in culture

CC(C)CN(C[C@@H](O)[C@H](Cc1ccccc1)NC(=O)O[C@H]1CO[C@H]2OCC[C@H]21)S(=O)(=O)c1ccc(N)cc1 was tested, and the IC90 was 4.1 nM.
